Laboratory results taken from patent US8759354B2, “Pharmaceutical composition comprising pyrazine derivative, and method of using pyrazine derivative in combination” (priority 2007, dated 2014).
Where two headings read alike, the source gives them in different places.

Columns and labels:
[1] = test system: influenza virus (PR/8 (H1N1)); experiment: microbe, parasite or virus in culture; assay type: cell-based; settings: unidentified influenza virus, MDCK; for inhibition at 0.00625 µg/mL: read-out: Inhibition rate, single use, 0.00625 μg/mL; for inhibition at 0.0125 µg/mL: read-out: Inhibition rate, single use, 0.0125 μg/mL; for inhibition at 0.025 µg/mL: read-out: Inhibition rate, single use, 0.025 μg/mL; for inhibition at 0.05 µg/mL: read-out: Inhibition rate, single use, 0.05 μg/mL; for inhibition at 0.1 µg/mL: read-out: Inhibition rate, single use, 0.1 μg/mL; for inhibition at 0.2 µg/mL: read-out: Inhibition rate, single use, 0.2 μg/mL; for inhibition at 0.4 µg/mL: read-out: Inhibition rate, single use, 0.4 μg/mL; for inhibition at 0.0625 µg/mL: read-out: Inhibition rate, single use, 0.0625 μg/mL; for inhibition at 0.125 µg/mL: read-out: Inhibition rate, single use, 0.125 μg/mL; for inhibition at 0.25 µg/mL: read-out: Inhibition rate, single use, 0.25 μg/mL; for inhibition at 0.5 µg/mL: read-out: Inhibition rate, single use, 0.5 μg/mL; for inhibition at 1 µg/mL: read-out: Inhibition rate, single use, 1 μg/mL; for inhibition at 2 µg/mL: read-out: Inhibition rate, single use, 2 μg/mL
[2] = test system: Victoria/3/75 (H3N2) influenza virus; experiment: microbe, parasite or virus in culture; assay type: cell-based; settings: Influenza A virus, H3N2, MDCK, single use, read-out: Inhibition rate; for inhibition at 0.0125 µg/mL: 0.0125 μg/mL; for inhibition at 0.025 µg/mL: 0.025 μg/mL; for inhibition at 0.05 µg/mL: 0.05 μg/mL; for inhibition at 0.1 µg/mL: 0.1 μg/mL; for inhibition at 0.2 µg/mL: 0.2 μg/mL; for inhibition at 0.125 µg/mL: 0.125 μg/mL; for inhibition at 0.25 µg/mL: 0.25 μg/mL; for inhibition at 0.5 µg/mL: 0.5 μg/mL; for inhibition at 1 µg/mL: 1 μg/mL; for inhibition at 2 µg/mL: 2 μg/mL; for inhibition at 4 µg/mL: 4 μg/mL

CCC(CC)O[C@@H]1C=C(C(=O)O)C[C@H](N)[C@H]1NC(C)=O [GS-4071]
inhibition at 0.00313 µg/mL ([1]; read-out: Inhibition rate, single use, 0.00313 μg/mL, Test Example 1): 1.9%
inhibition at 0.00625 µg/mL ([1]; Test Example 1): 11%
inhibition at 0.0125 µg/mL ([1]; Test Example 1): 14%
inhibition at 0.025 µg/mL ([1]; Test Example 1): 25%
inhibition at 0.05 µg/mL ([1]; Test Example 1): 29%
inhibition at 0.1 µg/mL ([1]; Test Example 1): 42%
inhibition at 0.2 µg/mL ([1]; Test Example 1): 61%
inhibition at 0.4 µg/mL ([1]; Test Example 1): 73%
inhibition at 0.8 µg/mL ([1]; read-out: Inhibition rate, single use, 0.8 μg/mL, Test Example 1): 84%
inhibition at 0.003125 µg/mL ([2]; 0.003125 μg/mL, Test Example 3): 8.6%
inhibition at 0.00625 µg/mL ([2]; 0.00625 μg/mL, Test Example 3): 14%
inhibition at 0.0125 µg/mL ([2]; Test Example 3): 44%
inhibition at 0.025 µg/mL ([2]; Test Example 3): 54%
inhibition at 0.05 µg/mL ([2]; Test Example 3): 68%
inhibition at 0.1 µg/mL ([2]; Test Example 3): 80%
inhibition at 0.2 µg/mL ([2]; Test Example 3): 88%

NC(=O)c1nc(F)cnc1O [T-705, 6-Fluoro-3-hydroxy-2-pyrazinecarboxamide]
inhibition at 0.0156 µg/mL ([1]; read-out: Inhibition rate, single use, 0.0156 μg/mL, Test Example 1): 1.9%
inhibition at 0.0313 µg/mL ([1]; read-out: Inhibition rate, single use, 0.0313 μg/mL, Test Example 1): 6.7%
inhibition at 0.0625 µg/mL ([1]; Test Example 1): 9.7%
inhibition at 0.0625 µg/mL ([1]; Test Example 2): 6.2%
inhibition at 0.125 µg/mL ([1]; Test Example 1): 27%
inhibition at 0.125 µg/mL ([1]; Test Example 2): 17%
inhibition at 0.25 µg/mL ([1]; Test Example 1): 43%
inhibition at 0.25 µg/mL ([1]; Test Example 2): 34%
inhibition at 0.5 µg/mL ([1]; Test Example 1): 60%
inhibition at 0.5 µg/mL ([1]; Test Example 2): 64%
inhibition at 1 µg/mL ([1]; Test Example 1): 85%
inhibition at 1 µg/mL ([1]; Test Example 2): 77%
inhibition at 2 µg/mL ([1]; Test Example 1): 93%
inhibition at 2 µg/mL ([1]; Test Example 2): 89%
inhibition at 4 µg/mL ([1]; read-out: Inhibition rate, single use, 4 μg/mL, Test Example 1): 100%
inhibition at 0.125 µg/mL ([2]; Test Example 3): 2.6%
inhibition at 0.125 µg/mL ([2]; Test Example 4): 2.6%
inhibition at 0.25 µg/mL ([2]; Test Example 3): 9%
inhibition at 0.25 µg/mL ([2]; Test Example 4): 9.2%
inhibition at 0.5 µg/mL ([2]; Test Example 3): 42%
inhibition at 0.5 µg/mL ([2]; Test Example 4): 42%
inhibition at 1 µg/mL ([2]; Test Example 3): 76%
inhibition at 1 µg/mL ([2]; Test Example 4): 76%
inhibition at 2 µg/mL ([2]; Test Example 3): 86%
inhibition at 2 µg/mL ([2]; Test Example 4): 86%
inhibition at 4 µg/mL ([2]; Test Example 3): 94%
inhibition at 4 µg/mL ([2]; Test Example 4): 94%

CC(=O)N[C@H]1[C@H]([C@H](O)[C@H](O)CO)OC(C(=O)O)=C[C@@H]1N=C(N)N [Zanamivir, zanamivir]
inhibition at 0.0031 µg/mL ([1]; read-out: Inhibition rate, single use, 0.0031 μg/mL, Test Example 2): 6.2%
inhibition at 0.00625 µg/mL ([1]; Test Example 2): 12%
inhibition at 0.0125 µg/mL ([1]; Test Example 2): 23%
inhibition at 0.025 µg/mL ([1]; Test Example 2): 28%
inhibition at 0.05 µg/mL ([1]; Test Example 2): 49%
inhibition at 0.1 µg/mL ([1]; Test Example 2): 60%
inhibition at 0.2 µg/mL ([1]; Test Example 2): 67%
inhibition at 0.4 µg/mL ([1]; Test Example 2): 75%
inhibition at 0.0125 µg/mL ([2]; Test Example 4): 7.4%
inhibition at 0.025 µg/mL ([2]; Test Example 4): 14%
inhibition at 0.05 µg/mL ([2]; Test Example 4): 27%
inhibition at 0.1 µg/mL ([2]; Test Example 4): 40%
inhibition at 0.2 µg/mL ([2]; Test Example 4): 60%
inhibition at 0.4 µg/mL ([2]; 0.4 μg/mL, Test Example 4): 71%
inhibition at 0.8 µg/mL ([2]; 0.8 μg/mL, Test Example 4): 81%
